In patent US6632602B1, “Plant sugar sensors and uses thereof” (The General Hospital Corporation, priority 1996, dated 2003):

Experiments:
Arabidopsis seedlings [1] = experiment: Sugar sensitivity bioassay of light-grown seedlings on 6% glucose or 0.8 mM 2-dGlc plates; format: in vivo; conditions: control plants, constant light; 6% glucose or low concentration (0.8 mM) 2-dGlc
Text: To test the hypothesis that AtHXKs act as sugar sensors in intact plants, transgenic plant models were established by introducing sense and antisense genes to alter AtHXK levels. Wild-type (Bensheim) Arabidopsis plants were transformed with binary vectors carrying gene fusions with the CaMV35S promoter and sense AtHXK1 (sense-AtHXK1), sense AtHXK2 (sense-AtHXK2), antisense AtHXK1 (anti-AtHXK1), or antisense AtHXK2 (anti-AtHXK2) using a standard Agrobacterium-mediated root transformation protocol (Czako et al., Mol. Gen. Genet. 235, 33 (1992)). The presence of a transgene was determined by NPTII expression and resultant kanamycin resistance, and by DNA blot analysis. Several transgenic lines of the T3 generation homozygous for the sense or antisense transgenes were selected for further analyses.
Sugar sensitivity of transgenic plants was examined by performing bioassays using 6% glucose or 0.8 mM 2-deoxyglucose (2-dGlc), a nonmetabolizable glucose analog. […]
The scored phenotypes shown in Table 1 were determined based on the examination of light-grown, 7-day-old seedlings which were germinated on 1/2 MS plates containing either 6% glucose or 0.8 mM of 2-dGlc. Sugar insensitive (Ins), hypersensitive (Hyp), and ambiguous (A) phenotypes were scored and tabulated.

Arabidopsis seedlings [2] = experiment: Osmotic control experiments on 6% mannitol or 6% 3-MeGlc plates; format: in vivo; conditions: plated on 6% of the substance
Text: To rule out the possibility that the difference in sugar sensing between transgenic and control plants was due to an osmotic effect, mannitol and 3-O-methylglucose (3-MeGlc) were used in control experiments.

[3] = system: yeast hxk1/hxk2 double mutant (DBY2219); experiment: Functional complementation of yeast hxk1/hxk2 double mutant on fructose; format: cell-based, Saccharomyces cerevisiae; conditions: for Complementation of yeast double mutant, growth on fructose as sole carbon source: cDNA transformed into DBY2219
Text: To elucidate the role of HXK as a sugar sensor, the Arabidopsis HXK genes were cloned by functional complementation using a yeast Saccharomyces cerevisiae hxk1/hxk2 double mutant (designated DBY2219), a strain which lacked HXK activity (Ma and Botstein, Mol. Cell. Biol. 6, 4046 (1986)). Using this approach, we identified two cDNAs, designated AtHXK1 (FIG. 1F; SEQ ID NO: 3, GenBank accession no. U28214) and AtHXK2 (FIG. 1G; SEQ ID NO: 4, GenBank accession no. U28215). These cDNAs, which were 2.0 and 1.9 kb in length respectively, were both found reproducibly to complement the yeast double mutant and to allow its growth on a selection plate containing fructose as the sole carbon source. […] In contrast, mutants transformed with the plasmid vector pFL61 alone were incapable of growth on the same selection media (FIG. 1A) (Minet et al., Plant J. 2, 417 (1992)).

[4] = system: yeast hxk1/hxk2 double mutant (DBY2219); experiment: Yeast glucose repression assay on 2-dGlc/raffinose plate; format: cell-based, Saccharomyces cerevisiae; conditions: 2% raffinose, 2-deoxyglucose (0.02%)
Text: To confirm this hypothesis, we sought to increase the expression of a heterologous HXK that would provide excess catalytic activity for sugar metabolism, but no regulatory function. The yeast HXK2 (YHXK2) has been proposed to have catalytic and regulatory functions, and appeared to be a good candidate for this experiment (Entian, Mol. Gen. Genet. 178, 633 (1980); Entian and Frshlich, J. Bacteriol. 158, 29 (1984); Entian et al., Mol. Cell. Biol. 5, 3035 (1985)). We first determined whether the putative regulatory functions of the YHXK2 and AtHXK were interchangeable by examining the effect of increasing the expression of AtHXK on glucose repression in a yeast hxk1/hxk2 double mutant (DBY2219). The assay was based on the YHXK2-mediated growth inhibition (i.e., glucose repression) of wild-type yeast cells on a 2-dGlc/raffinose plate. The glucose repression assay was performed using a YP plate with 2% raffinose as the carbon source in the presence of 2-deoxyglucose (0.02%) as described by Ma et al. (Mol. Cell. Biol. 9, 5643 (1989)). The glucose analog, 2-dGlc, mimics glucose by inducing strong repression of the invertase gene (SUC2), but is itself unavailable for use as a carbon source.

Compound	Difference between control and transgenic plants (Arabidopsis seedlings [2])	Complementation of yeast double mutant, growth on fructose as sole carbon source [3]	Glucose repression in hxk1/hxk2 strain [4]	other results
O=CC[C@@H](O)[C@H](O)[C@H](O)CO [2-dGlc, 2-deoxyglucose]				Effect of sugar on control (wild-type) seedling development (Arabidopsis seedlings [1]): greening of cotyledons was found to be inhibited
CO[C@@H]([C@H](O)[C@H](O)CO)[C@@H](O)C=O [3-MeGlc, 3-O-methylglucose]	No apparent difference			
OC[C@@H](O)[C@@H](O)[C@H](O)[C@H](O)CO [mannitol]	No apparent difference			
AtHXK1: Arabidopsis hexokinase cDNA, SEQ ID NO: 3, GenBank accession no. U28214		complement	did not restore glucose repression	Catalytic activity in yeast transformation experiment ([3]; data not shown): higher catalytic activity than AtHXK2
AtHXK2: Arabidopsis hexokinase cDNA, SEQ ID NO: 4, GenBank accession no. U28215		complement	did not restore glucose repression	
